# Measured values published in PubChem BioAssay (NCI).
# Values joined by “and” are separate entries in the source; they are usually repeats but may differ in a detail not shown here. Identical values can stand only once.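 Step 1: Grow cells in 96-well plates. Step 2: Expose to compound for 48 hours at 5 concentrations. Step 3: Interpolate endpoints linearly; if unreached, use highest concentration. At the GI50, growth is halved. The concentration for full growth arrest is given as TGI.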
# Key:
# Assay in all cases: NCI anticancer screen, dose series, 48 h
# [1] = test system: SK-OV-3 ovarian
# [2] = test system: SN12C renal
# [3] = test system: OVCAR-4 ovarian
# [4] = test system: MDA-MB-435
# [5] = test system: OVCAR-8 ovarian
# [6] = test system: SR leukemia
# [7] = test system: UACC-62 melanoma
# [8] = test system: DU-145 prostate
# [9] = test system: SK-MEL-28 melanoma
# [10] = test system: MALME-3M melanoma
Structure (SMILES),GI50 [1] [µM],TGI [1],GI50 [2] [µM],TGI [2] [µM],GI50 [3] [µM],TGI [3],GI50 [4] [µM],TGI [4],GI50 [5] [µM],TGI [5],GI50 [6] [µM],TGI [6] [µM],GI50 [7] [µM],TGI [7] [µM],GI50 [8] [µM],TGI [8],GI50 [9] [µM],TGI [9],GI50 [10] [µM],TGI [10]
CCOC(=O)/C=C1\SC(=Nc2ccc(C#N)cc2)N(CCN2C(=O)/C(=C/C(=O)OCC)SC2=Nc2ccc(C#N)cc2)C1=O,15.3,41.7 µM,2.58,16.6,2.28,29.9 µM,3.21,16 µM,3.65,> 63.8 µM,0.303,> 100,3.25,17.9,3.04,13.6 µM,8.86,27.5 µM,11,30 µM
O=C(Oc1ccc([N+](=O)[O-])cc1)N1CCN(Cc2cccc(Oc3ccccc3)c2)CC1,> 100,> 100 µM,> 100,> 100,> 44.8,> 100 µM,> 100,> 100 µM,> 100,> 100 µM,22.5,> 100,13.6,> 100,> 100,> 100 µM,> 100,> 100 µM,> 95.3,> 100 µM
CC(C)(C)OC(=O)NCCCCCCCCn1c2c(c3ccccc3c1=O)C(=O)c1ccccc1-2,14.4,> 39.4 µM,> 50,> 50,> 50,> 50 µM,> 50,> 50 µM,33.9,> 50 µM,> 34.8,> 50,20.3,> 50,> 50,> 50 µM,> 50,> 50 µM,> 15.9,> 43.7 µM
COc1ncc(-c2nc3c(n2C(C)C)[C@H](c2ccc(Cl)cc2)N(c2cc(Cl)cn(C)c2=O)C3=O)c(OC)n1,40.4,> 100 µM,49.8,> 100,29.2,> 100 µM,35.3,> 100 µM,59.7,> 100 µM,6.14,77.1,5.95,28.4,94.8,> 100 µM,42.2,> 100 µM,14.6,59.3 µM
C#CCN1CCN(C(=S)N/N=C(\C)c2ccccn2)CC1,1.57,2.91 µM and 5.09 µM,2.39,11.4,2.73,4.74 µM and 3.84 µM,,3.39 µM and 4.03 µM,0.0131,3.5 µM and 3.46 µM,,2.36,,,1.19,4.74 µM and 6.36 µM,2.09,8.06 µM and 7.04 µM,0.496,5.76 µM and 4.6 µM
COc1cc(NN=C(c2ccc(O)cc2)c2ccc(O)cc2)c([N+](=O)[O-])cc1[N+](=O)[O-],16.6,30.2 µM,11.2,23.3,12.2,27 µM,10.4,22.6 µM,4.91,27.5 µM,10.9,> 100,10.6,22.6,12.8,50.8 µM,15.3,33.9 µM,17.2,31.6 µM
COc1cc(/C=C/C(=O)c2cc(F)c(Cl)cc2Cl)cc(OC)c1OC,> 100,> 100 µM,27.7,> 100,48.6,> 100 µM,28.1,> 100 µM,15.8,33.6 µM,5.23,39.1,24.8,> 100,68.6,> 100 µM,32,> 100 µM,10.8,37.7 µM
COc1cc2c3c(n(CCCN)c(=O)c2cc1OC)-c1ccc(F)cc1C3=O,3.87,17.7 µM,4.29,17.4,6.04,21.2 µM,8.16,25.5 µM,3.07,11.3 µM,0.118,1.14,0.925,5.76,0.788,2.03 µM,12.6,26.9 µM,9.22,28.5 µM
Nc1nc2ccc([C@@H]3Nc4ccc5[nH]ncc5c4[C@H]4[C@H]5CCC(C5)[C@H]43)cc2s1,1.73,3.63 µM,1.53,4.12,2.2,6.05 µM,0.293,1.03 µM,2.35,16.7 µM,0.336,2.72,1.51,3.05,1.63,5.78 µM,1.36,4.29 µM,0.968,2.6 µM
Nc1nc2c(c3ncccc13)C(c1cccc(Cl)c1)Cc1ncccc1-2 (stereo unspecified),2.69,23.2 µM,5.93,44.5,5.14,40.5 µM,0.29,1.17 µM,3.95,37.5 µM,0.469,14.3,0.628,16.6,2.77,24.9 µM,8.17,28.4 µM,15.2,60.4 µM
CC[N+](CC)=c1ccc2nc3c(cc(NCc4ccccc4)c4ccccc43)oc-2c1,1.12,2.32 µM,1.02,2.34,0.176,1.63 µM,0.18,0.352 µM,0.362,2.38 µM,0.27,0.999,0.944,2.52,0.155,0.291 µM,1.2,2.47 µM,0.172,0.358 µM
O=C(Nc1cnn2ccc(N3CCC[C@@H]3c3cc(F)ccc3F)nc12)N1CC[C@H](O)C1,> 100,> 100 µM,> 100,> 100,> 100,> 100 µM,> 100,> 100 µM,> 100,> 100 µM,> 100,> 100,> 100,> 100,> 100,> 100 µM,> 100,> 100 µM,> 100,> 100 µM
